Experimental data: paper PMC9106035, “Synthesis, X-ray Structure and Biological Studies of New Self-Assembled Cu(II) Complexes Derived from s-Triazine Schiff Base Ligand” (Molecules, 2022)
pIC50: −log10 of the molar value. ≈ marks a conversion by molar mass, not a printed value. Where “and” joins values, the source holds several entries; their conditions need not be identical. Equal entries are not always repeated. Where two headings read alike, the source gives them in different places. Marks after values point to notes of the source that are not given here.

How the values were obtained:
[1] = tested on: C. albicans (RCMB 005003(1) ATCC 10231); experiment: Minimum Inhibitory Concentration (MIC); format: cell-based; details: Candida albicans, read-out: MIC
Method: (§1) Method S2: Antimi crobial studies a) Tested pathogenic microbes
(§2) The antibacterial a ctivity of the studied ligands and their Cu(II) complexes were evaluated against two Gram positive bacteria ((S. aureus (ATCC 25923) and B. […]
(§3) 0.5). In case of fungi A. fumigatus (RCMB 002008) and C. albicans (RCMB 005003(1) ATCC 10231), the used medium in antagonistic activity against tested fungi is Potato Dextrose Agar, where Fluconazole was used standard antifungal agent. […]
(§4) c) Minimum Inhibitory Concentration (MIC)
(§5) Different dilutions of the compounds are inoculat ed with tested pathogenic microbes.
(§6) After incubation period of 96 well microplate, the results are meas ured using microplate reader. To determine at what level the MIC endpoint is established; subculture of test samples at different concentrati ons occurred in nutrient agar plates.

[2] = tested on: A. fumigatus (RCMB 002008); experiment: Minimum Inhibitory Concentration (MIC); format: cell-based
Method: as §1, §2, §3, §4, §5, §6

[3] = tested on: C. albicans (RCMB 005003(1) ATCC 10231); experiment: Agar well diffusion, inhibition zone; format: cell-based; details: 10 mg/mL of the tested compounds
Method: (§7) The antimicrobial activity of the free ligands and the corresponding Cu(II) complexes was determined against different categories of microbes (Table 5). All inhibition zones were determined at 10 mg/mL of the tested compounds. […] The largest inhibition zones were found for B. subtilis (25 mm), which is very close to the standard Gentamycin (26 mm). […] Complex 1 evidenced antimicrobial activity against all microbes except C. albicans.
as §1, §2
(§8) 0.5). In case of fungi A. fumigatus (RCMB 002008) and C. albicans (RCMB 005003(1) ATCC 10231), the used medium in antagonistic activity against tested fungi is Potato Dextrose Agar, where Fluconazole was used standard antifungal agent. b) Agar well diffusion method
(§9) Synthetic compounds were prepared at concentration 10 mg/mL dissolved in DMSO as stock solutions. Preparation of sterilized Mueller Hinton agar plates seeded with tested pathogenic b acteria occurred. The wells are done by sterilized cork borer in size […]
(§10) comparably with DMSO as control. The plates were incubated at 37°C for 24 h. after incubation period; antimicrobial activity was d etermined by inhibition zones. […]

[4] = tested on: A. fumigatus (RCMB 002008); experiment: Agar well diffusion, inhibition zone; format: cell-based; details: 10 mg/mL of the tested compounds
Method: as §7, §1
as §2, with “B. subtilis (RCMB015(1)NRR LB-543)), two Gram negatvie bacteria ((E. coli (ATCC 25922) and P. vulgaris (RCMB 004(1)ATCC 13315)) and two fungi ((A. fumigatus” for “B.”
was used as standard antibacterial agent. The samples maintained in Brain heart infusion (BHI) at 20 °C; […] of each stock–c ulture was added to 3 mL of BHI […]
broth. […]
as §8, §9, §10

[5] = tested on: E. coli (ATCC 25922); experiment: Agar well diffusion, inhibition zone; format: cell-based; details: 10 mg/mL of the tested compounds
Method: as §7, §1
as §2, with “B. subtilis (RCMB015(1)NRR LB-543)), two Gram negatvie bacteria ((E. coli (ATCC 25922) and P. vulgaris (RCMB 004(1)ATCC 13315)) and two fungi ((A. fumigatus” for “B.”
(§11) was used as standard antibacterial agent. The samples maintained in Brain heart infusion (BHI) at 20 °C; […] of each stock–c ulture was added to 3 mL of BHI broth. Overnight cultures were kept for 24 h at 37 °C ± 1 °C and the purity of cultures was checked aft er 24 h of incubation. […]
(§12) b) Agar well diffusion method
as §9, §10

[6] = tested on: B. subtilis (RCMB015(1)NRR LB-543); experiment: Agar well diffusion, inhibition zone; format: cell-based; details: 10 mg/mL of the tested compounds
Method: as §7, §1
as §2, with “B. subtilis (RCMB015(1)NRR LB-543)), two Gram negatvie bacteria ((E. coli (ATCC 25922) and P. vulgaris (RCMB 004(1)ATCC 13315)) and two fungi ((A. fumigatus” for “B.”
as §11, §12, §9, §10

[7] = tested on: P. vulgaris (RCMB 004(1)ATCC 13315); experiment: Agar well diffusion, inhibition zone; format: cell-based; details: 10 mg/mL of the tested compounds
Method: as §7, §1
as §2, with “B. subtilis (RCMB015(1)NRR LB-543)), two Gram negatvie bacteria ((E. coli (ATCC 25922) and P. vulgaris (RCMB 004(1)ATCC 13315)) and two fungi ((A. fumigatus” for “B.”
as §11, §12, §9, §10

[8] = tested on: S. aureus (ATCC 25923); experiment: Agar well diffusion, inhibition zone; format: cell-based; details: 10 mg/mL of the tested compounds
Method: as §7, §1
as §2, with “B. subtilis (RCMB015(1)NRR LB-543)), two Gram negatvie bacteria ((E. coli (ATCC 25922) and P. vulgaris (RCMB 004(1)ATCC 13315)) and two fungi ((A. fumigatus” for “B.”
as §11, §12, §9, §10

[9] = tested on: E. coli (ATCC 25922); experiment: Minimum Inhibitory Concentration (MIC); format: cell-based
Method: as §1
as §2, with “B. subtilis (RCMB015(1)NRR LB-543)), two Gram negatvie bacteria ((E. coli (ATCC 25922) and P. vulgaris (RCMB 004(1)ATCC 13315)) and two fungi ((A. fumigatus” for “B.”
as §11, §4, §5, §6

[10] = tested on: B. subtilis (RCMB015(1)NRR LB-543); experiment: Minimum Inhibitory Concentration (MIC); format: cell-based
Method: as §1
as §2, with “B. subtilis (RCMB015(1)NRR LB-543)), two Gram negatvie bacteria ((E. coli (ATCC 25922) and P. vulgaris (RCMB 004(1)ATCC 13315)) and two fungi ((A. fumigatus” for “B.”
as §11, §4, §5, §6

[11] = tested on: P. vulgaris (RCMB 004(1)ATCC 13315); experiment: Minimum Inhibitory Concentration (MIC); format: cell-based
Method: as §1
as §2, with “B. subtilis (RCMB015(1)NRR LB-543)), two Gram negatvie bacteria ((E. coli (ATCC 25922) and P. vulgaris (RCMB 004(1)ATCC 13315)) and two fungi ((A. fumigatus” for “B.”
as §11, §4, §5, §6

[12] = tested on: S. aureus (ATCC 25923); experiment: Minimum Inhibitory Concentration (MIC); format: cell-based
Method: as §1
as §2, with “B. subtilis (RCMB015(1)NRR LB-543)), two Gram negatvie bacteria ((E. coli (ATCC 25922) and P. vulgaris (RCMB 004(1)ATCC 13315)) and two fungi ((A. fumigatus” for “B.”
as §11, §4, §5, §6

[13] = DPPH radical scavenging assay; format: biochemical
Method: The studied Cu(II) complexes and the free ligands were assessed for their antioxidant activity levels using an α,α-diphenyl-β-picrylhydrazyl (DPPH) scavenging assay, and the results are given in Table 7. […] The results indicated better antioxidant activity for DMAT than for DMOHT, indicating the effect of the substituent at the phenyl moiety on the antioxidant activity level of the free ligand. […] On the other hand, the Cu(II) complexes have improved levels of antioxidant activity compared to the free ligands.
Method S3 DPPH Radical Scavenging Activity:
Freshly prepared (0.004 %w/v) methanol solution of 2,2-diphenyl-1-pi crylhydrazyl (DPPH) radical was prepared and stored at 10 °C in dark place. A methanolic solution of the test compound was prepared using the same procedure. A 40 uL aliquot of the methanol solution was added to 3mL of DPPH solution. Absorbance measurements were recorded immediately with a UV-visible spectrophotometer (Milton Roy, Spectronic 1201). The decrease in absorbance at 515 nm was determined continuously, with data being recorded at 1 min intervals until the absorbance stabilized (16 min). The absorbance of the DPPH radical without antioxidant (control) and the reference compound ascorbic acid were also measured.
All the determinations were performed in three replicates and averaged. The percentage inhibition (PI) of the DPPH radical was calculated according to the […]
PI = [{(AC- AT)/ AC} x 100] (1)
Where AC = Absorbance of the control at t = 0 min and AT = absorbance of the sample+DPPH at t = 16 min. The 50% inhibitory concentration (IC50), the concentration required t o inhibit DPPH radical by 50%, was estimated from graphic plots of the dose respons e curve.

[14] = tested on: lung carcinoma A-549 cell line; experiment: Anticancer activity, MTT viability assay; format: cell-based; details: A-549 cells, 24 h, MTT
Method: The studied compounds were examined for their anticancer activity against the lung carcinoma A-549 cell line.
Method S4 Evaluation of Cytotoxic activity
The cells were propagated in Dulbecco’s modified Eagle’s medium (DMEM) supplemented with 10% heat-inactivated fetal bovine serum, 1 % L-glutamine, HEPES buffer and 50µg/mL Gentamycin. All cells were maintained at 37 °C in a humidified atmosphere with 5% CO2 and were subcultured tw o times a week.
Cytotoxicity evaluation using viability assay
For cytotoxicity assay, the cells were seeded in 96-well plate at a cell concentration of 1×10^4 cells per well in 100µl of growth medium. Fresh medium containing different concentrations of the test sample was added after 24 h of seeding. Serial two-fold dilutions of the tested chemical compound were added to confluent cell monolayers dispensed into 96-well, flat-bottomed microtiter plates (Falcon, NJ, USA) using a multichannel pipette. The microtiter plates were incubated at 37 °C in a humidified incubator with 5% CO2 for a period of 24 h. Three wells were used for each concentration of the test sample. Control cells were incubated without test sample and with or without DMSO. The little percentage of DMSO present in the […]
cells for at 37°C, for 24 h, the viabl e cells yield was determined by the MTT test.
Briefly, the media was removed from the 96 well plate and replaced with 100 µL of fresh culture DMEM m edium without phenol red then 10 µL of the 12 mM MTT stock solution (5 mg of MTT in 1 mL of PBS) to each well including the untreated controls. The 96 well plates were then incubated at 37°C and 5% CO2 for 4 hours. An 85 µL aliquot of the media was removed from t he wells, and 50 µL of DMSO was added to each well and mixed thoroughly with the pipette and incubated at 37°C for 10 min. Then, the optical density was measured at 590 nm with the microplate reader (SunRise, TECAN, Inc, USA) to determine the number of viable cells and the percentage of viability was calculat ed as [(ODt/ODc)]x100% where ODt i s the mean optical density of wells treated with the tested s ample and ODc is the mean optical density of untreated cells. The relation between surviving cells and drug concentration is plotted to get the survival curve of each tumor cell line after treatment with the specified compound. The 50% inhibitory concentration (IC50), the concentration required to cause t oxic effects in 50% of intact cells, was estimated from graphic plots of the dose response curve for each conc. using Graphpad Prism software (San Diego, […]

For `CC(=O)N1CCN(c2ccc(OCC3COC(Cn4ccnc4)(c4ccc(Cl)cc4Cl)O3)cc2)CC1` (stereo not shown) [Ketoconazole, reference compound], the MIC [1] was 312 µg/mL (≈ 588 µM), the MIC [2] was 156.25 ^a μg/mL and the MIC ([2]; Aspergillus fumigatus, RCMB002008, read-out: MIC) was 156 µg/mL (≈ 294 µM). The Inhibition zone diameters [3] was 20 ^a mm and the Inhibition zone diameters [4] was 17 mm and 17 ^a mm.

In the case of Gentamycin [reference compound], the Inhibition zone diameters [5] was 30 ^b mm, the Inhibition zone diameters [6] was 26 mm and 26 ^b mm and the Inhibition zone diameters [7] was 25 ^b mm. The Inhibition zone diameters [8] was 24 ^b mm, the MIC [9] was 4.8 ^b μg/mL and the MIC [10] was 4.8 μg/mL and 4.8 ^b μg/mL. For the same molecule, the MIC [11] was 4.8 ^b μg/mL and the MIC [12] was 9.7 ^b μg/mL.

In the case of `O=C1O[C@H]([C@@H](O)CO)C(O)=C1O` [Ascorbic Acid, ascorbic acid, reference compound], the “DPPH Scavenging %” value ([13]; Conc. 2.5 μg/mL) was 34.57%, the “DPPH Scavenging %” value ([13]; Conc. 5 μg/mL) was 40.36% and the “DPPH Scavenging %” value ([13]; Conc. 10 μg/mL) was 48.52%. The “DPPH Scavenging %” value ([13]; Conc. 20 μg/mL) was 71.38%, the “DPPH Scavenging %” value ([13]; Conc. 40 μg/mL) was 83.09% and the “DPPH Scavenging %” value ([13]; Conc. 80 μg/mL) was 90.25%. The “DPPH Scavenging %” value ([13]; Conc. 160 μg/mL) was 92.31%, the “DPPH Scavenging %” value ([13]; Conc. 320 μg/mL) was 95.64% and the “DPPH Scavenging %” value ([13]; Conc. 640 μg/mL) was 97.83%. The “DPPH Scavenging %” value ([13]; Conc. 1280 μg/mL) was 98.91% and the “IC50 (DPPH scavenging)” value ([13]; antioxidant activity) was 10.62 ± 0.84 µg/mL (≈ 60.3 µM).

In the case of `N.N.[Cl][Pt][Cl]` [cis-Platin, cis-platin, reference compound], the pIC50 [14] was 4.60.
